Test results reported in patent US10016382B2, “Method for decreasing skeletal muscle damage and/or oxidative stress in mammals” (LONZA INC., priority 2014, dated 2018).
Values joined by “and” are separate entries in the source; they are usually repeats but may differ in a detail not shown here. Equal values may be shown once.

Columns and labels:
Labrador Retrievers = test: Heart rate and body temperature recovery following 15 mile run, Example 1; type: in vivo, dog; conditions: Ex.1, 250 mg/d; for Dog body temperature after run / Heartrate after run / Temperature before run / Heartrate before run: mean ± SEM; for Temperature before run / Heartrate before run: before 15 mile run
Description: Each test dog wore an Actical activity monitor from Philips Respironics on a collar for the short higher intensity runs and also wore an Actical activity monitor for the weekly longer endurance runs. The activity data was downloaded into spread sheets along with each dogs identity. Twenty four hours after each long run during the 13 wk running program each of the dogs were scored by kennel staff for soreness or any type of lameness The exercise program was decreased in a tapering program during wk 11 and 12 to allow the dogs to rest for the final long run completed on wk 13. Pre-run serum samples from each test dog was taken 24 hr before the last endurance run. The heart rate and basal body temperature was determined for each test dog prior to the last long endurance run. Each performance dog also wore the Actical activity monitor during the last endurance run. The dogs were put through a 15 mile run that included mud, water, tall grass, and swimming. The dogs were timed when they completed the course. The dogs were encouraged by kennel staff that rode along in a 4 wheel all terrain type vehicle during all of the endurance runs. […] Immediately following the 15 mile endurance run, each dog was placed in a kennel and evaluated for recovery time for body temperature (every 15 minutes for 2 hr) and heart rate (every 2 minutes for 14 minutes). Twenty four hours after test dogs ran the last 15 endurance run, post-run serum samples were taken to evaluate biomarkers for muscle damage and antioxidant status. Each test dog was also scanned with the GE Prodigy DEXA to determine body composition change that occurred during the course of the 13 wk study. The dogs were timed during the last 15 mile run at the end of the study. The body temperature and heart rate for each dog was determined just prior to the long 15 mile run. The heart rate measurements were determined manually and body temperature was determined by using a rectal thermometer. Each staff member was responsible for determining the time required to complete the run for one of the test dogs in each set. Each staff member was also responsible for determining the heart rate and body temperature of their specific assigned dog immediately upon their return after the run. The heart rate was determined every 2 minutes for a fourteen minute period following the last long run and the body temperature was determined every 15 minute for a two hour period after completing the long run. The heart rate and body temperature was determined both before and after to evaluate the fitness and time required after run to reach basal HR and body temperatures.

creatine kinase = test: Serum creatine kinase, Example 2 part one; type: in vivo, dog; conditions: for Creatine Kinase: serum
Method: Twenty-four hours after test dogs ran the last 15 mile endurance run, serum samples were taken to evaluate biomarkers for muscle damage and antioxidant status. Blood samples were taken 1) just prior to the beginning of the study; 2) 1 day prior to running the final 15 mile run on the 14th week; 3) 1 hour immediately following the 15 mile run; and 4) 24 hours following the final 15 mile run. After a blood sample was drawn, it was allowed to clot for 30 minutes at 25° C. before being centrifuged for 15 minutes at 2000 g at 4° C. Serum was aliquoted into 0.65 mL microcentrifuge tubes and stored at −80° C. until being assayed at the end of the study for creatine kinase, canine myoglobin, thiobarbituric acid reactive substances (TBARS), and total antioxidant capacity (TAC) using the commercially available kits described in Example 1.

[1] = 0 min after 15 mile run, both sexes
[2] = 0 min after 15 mile run, females

SMILES: C[N+](C)(C)C[C@H](O)CC(=O)[O-] [L-carnitine]
- Dog body temperature after run (Labrador Retrievers; [1]): 103.7 ± 0.3 n = 19 ° F.
- Heartrate after run (Labrador Retrievers; [1]): 159 and 159 ± 4 n = 16
- Dog body temperature after run (Labrador Retrievers; [2]): 103.6 ± 0.5 n = 9 ° F.
- Heartrate after run (Labrador Retrievers; [2]): 155 ± 5 n = 8
- Dog body temperature after run (Labrador Retrievers; 0 min after 15 mile run, males): 103.8 ± 0.3 n = 10 ° F.
- Heartrate after run (Labrador Retrievers; 0 min after 15 mile run, males): 164 ± 6 n = 11
- Heartrate after run (Labrador Retrievers; 2 min after 15 mile run, both sexes): 146 ± 5 n = 16
- Heartrate after run (Labrador Retrievers; 2 min after 15 mile run, females): 139 ± 6 n = 8
- Heartrate after run (Labrador Retrievers; 2 min after 15 mile run, males): 149 ± 6 n = 11
- Heartrate after run (Labrador Retrievers; 4 min after 15 mile run, both sexes): 131 ± 5 n = 16
- Heartrate after run (Labrador Retrievers; 4 min after 15 mile run, females): 123 ± 6 n = 8
- Heartrate after run (Labrador Retrievers; 4 min after 15 mile run, males): 143 ± 8 n = 11
- Heartrate after run (Labrador Retrievers; 6 min after 15 mile run, both sexes): 123 ± 5 n = 16
- Heartrate after run (Labrador Retrievers; 6 min after 15 mile run, females): 120 ± 6 n = 8
- Heartrate after run (Labrador Retrievers; 6 min after 15 mile run, males): 131 ± 6 n = 11
- Heartrate after run (Labrador Retrievers; 8 min after 15 mile run, both sexes): 114 ± 4 n = 16
- Heartrate after run (Labrador Retrievers; 8 min after 15 mile run, females): 111 ± 6 n = 8
- Heartrate after run (Labrador Retrievers; 8 min after 15 mile run, males): 125 ± 6 n = 11
- Heartrate after run (Labrador Retrievers; 10 min after 15 mile run, both sexes): 113 ± 5 n = 16
- Heartrate after run (Labrador Retrievers; 10 min after 15 mile run, females): 109 ± 5 n = 8
- Heartrate after run (Labrador Retrievers; 10 min after 15 mile run, males): 120 ± 6 n = 11
- Heartrate after run (Labrador Retrievers; 12 min after 15 mile run, both sexes): 107 ± 4 n = 16
- Heartrate after run (Labrador Retrievers; 12 min after 15 mile run, females): 107 ± 7 n = 7
- Heartrate after run (Labrador Retrievers; 12 min after 15 mile run, males): 112 ± 5 n = 11
- Heartrate after run (Labrador Retrievers; 14 min after 15 mile run, both sexes): 101 ± 4 n = 16
- Heartrate after run (Labrador Retrievers; 14 min after 15 mile run, females): 103 ± 7 n = 7
- Heartrate after run (Labrador Retrievers; 14 min after 15 mile run, males): 102 ± 5 n = 10
- Dog body temperature after run (Labrador Retrievers; 15 min after 15 mile run, both sexes): 102.6 ± 0.2 n = 20 ° F.
- Dog body temperature after run (Labrador Retrievers; 15 min after 15 mile run, females): 102.6 ± 0.4 n = 9 ° F.
- Dog body temperature after run (Labrador Retrievers; 15 min after 15 mile run, males): 102.5 ± 0.2 n = 11 ° F.
- Dog body temperature after run (Labrador Retrievers; 30 min after 15 mile run, both sexes): 101.6 ± 0.1 n = 20 ° F.
- Dog body temperature after run (Labrador Retrievers; 30 min after 15 mile run, females): 101.3 ± 0.2 n = 9 ° F.
- Dog body temperature after run (Labrador Retrievers; 30 min after 15 mile run, males): 101.9 ± 0.1 n = 11 ° F.
- Dog body temperature after run (Labrador Retrievers; 45 min after 15 mile run, both sexes): 101.1 ± 0.1 n = 20 ° F.
- Dog body temperature after run (Labrador Retrievers; 45 min after 15 mile run, females): 101 ± 0.2 n = 9 ° F.
- Dog body temperature after run (Labrador Retrievers; 45 min after 15 mile run, males): 101.1 ± 0.1 n = 11 ° F.
- Dog body temperature after run (Labrador Retrievers; 60 min after 15 mile run, both sexes): 100.9 ± 0.2 n = 20 ° F.
- Dog body temperature after run (Labrador Retrievers; 60 min after 15 mile run, females): 100.8 ± 0.3 n = 9 ° F.
- Dog body temperature after run (Labrador Retrievers; 60 min after 15 mile run, males): 101 ± 0.2 n = 11 ° F.
- Dog body temperature after run (Labrador Retrievers; 75 min after 15 mile run, both sexes): 100.7 ± 0.2 n = 19 ° F.
- Dog body temperature after run (Labrador Retrievers; 75 min after 15 mile run, females): 100.7 ± 0.3 n = 8 ° F.
- Dog body temperature after run (Labrador Retrievers; 75 min after 15 mile run, males): 100.7 ± 0.2 n = 11 ° F.
- Dog body temperature after run (Labrador Retrievers; 90 min after 15 mile run, both sexes): 100.7 ± 0.2 n = 20 ° F.
- Dog body temperature after run (Labrador Retrievers; 90 min after 15 mile run, females): 100.6 ± 0.3 n = 9 ° F.
- Dog body temperature after run (Labrador Retrievers; 90 min after 15 mile run, males): 100.8 ± 0.2 n = 11 ° F.
- Dog body temperature after run (Labrador Retrievers; 105 min after 15 mile run, both sexes): 100.4 ± 0.2 n = 19 ° F.
- Dog body temperature after run (Labrador Retrievers; 105 min after 15 mile run, females): 100.2 ± 0.4 n = 8 ° F.
- Dog body temperature after run (Labrador Retrievers; 105 min after 15 mile run, males): 100.5 ± 0.2 n = 11 ° F.
- Dog body temperature after run (Labrador Retrievers; 120 min after 15 mile run, both sexes): 100.7 ± 0.2 n = 14 ° F.
- Dog body temperature after run (Labrador Retrievers; 120 min after 15 mile run, females): 100.7 ± 0.4 n = 4 ° F.
- Dog body temperature after run (Labrador Retrievers; 120 min after 15 mile run, males): 100.8 ± 0.2 n = 10 ° F.
- Time to get heart rate back to basal levels (Labrador Retrievers; after 15 mile run, both treatments required this time): approximately 14 minutes
- Temperature before run (Labrador Retrievers; both sexes): 101.3 ± 0.2 n = 20 ° F.
- Heartrate before run (Labrador Retrievers; females): 89 ± 3 n = 9
- Temperature before run (Labrador Retrievers; females): 101.0 ± 0.1 n = 9 ° F.
- Heartrate before run (Labrador Retrievers; males): 89 ± 3 n = 11
- Temperature before run (Labrador Retrievers; males): 101.7 ± 0.4 n = 11 ° F.
- Heart rate and body temperature recovery vs control (Labrador Retrievers; following the final long run): not different
- Time back to pre-run core temperature (Labrador Retrievers; males, following 15 mile run, both groups): 30 to 45 min
- CK increase from pre-run values (creatine kinase; Ex.2 part one, 250 mg/d, 1 hour post-endurance run): 10.81 units
- CK values, serum (creatine kinase; Ex.2 part one, 250 mg/d, 1 hour post-run): 26.39 mU/mL
- CK values, serum (creatine kinase; Ex.2 part one, 250 mg/d, 24 hour post-run): 23.06 mU/mL
- Creatine Kinase (creatine kinase; FEMALES, Baseline): 26.44 ± 3.08 mU · mL
- Creatine Kinase (creatine kinase; FEMALES, Post-Run 1 Hr): 26.8 ± 1.36 mU · mL
- Creatine Kinase (creatine kinase; FEMALES, Post-Run 24 Hr): 21.71 ± 0.79 mU · mL
- Creatine Kinase (creatine kinase; FEMALES, Pre-Run): 17.14 ± 1.96 mU · mL
- Creatine Kinase (creatine kinase; MALES, Baseline): 20.81 ± 2.98 mU/mL
- Creatine Kinase (creatine kinase; MALES, Post-Run 1 Hr): 25.98 ± 1.39 mU/mL
- Creatine Kinase (creatine kinase; MALES, Post-Run 24 Hr): 24.4 ± 1.53 mU/mL
- Creatine Kinase (creatine kinase; MALES, Pre-Run): 14.02 ± 1.98 mU/mL
- Creatine Kinase (creatine kinase; Whole Groups, Baseline): 23.63 ± 2.17 mU/mL
- Creatine Kinase (creatine kinase; Whole Groups, Post-Run 1 Hr, Post-Run 1 Hr): 26.39 ± 0.96 mU/mL
- Creatine Kinase (creatine kinase; Whole Groups, Post-Run 24 Hr, Post-Run 24 Hr): 23.06 ± 0.88 mU/mL
- Creatine Kinase (creatine kinase; Whole Groups, Pre-Run): 15.58 ± 1.4 mU/mL
